These results are taken from US20020064790A1, “Design of drugs involving receptor-ligand-DNA interactions” (priority 1993, published 2002).

“Also recorded” adds a separate entry of the source. Counter-ions that a name gives are not always drawn. Like-named read-outs stand apart in the source and are kept apart here.

Usually IC50 stands for the point on the concentration scale where inhibition reaches its midpoint. Higher therefore signals a need for much substance.

For assay [1], the target named is T1, estrogen receptor (Homo sapiens, UniProt P03372).
T1 sequence (P03372 1-595): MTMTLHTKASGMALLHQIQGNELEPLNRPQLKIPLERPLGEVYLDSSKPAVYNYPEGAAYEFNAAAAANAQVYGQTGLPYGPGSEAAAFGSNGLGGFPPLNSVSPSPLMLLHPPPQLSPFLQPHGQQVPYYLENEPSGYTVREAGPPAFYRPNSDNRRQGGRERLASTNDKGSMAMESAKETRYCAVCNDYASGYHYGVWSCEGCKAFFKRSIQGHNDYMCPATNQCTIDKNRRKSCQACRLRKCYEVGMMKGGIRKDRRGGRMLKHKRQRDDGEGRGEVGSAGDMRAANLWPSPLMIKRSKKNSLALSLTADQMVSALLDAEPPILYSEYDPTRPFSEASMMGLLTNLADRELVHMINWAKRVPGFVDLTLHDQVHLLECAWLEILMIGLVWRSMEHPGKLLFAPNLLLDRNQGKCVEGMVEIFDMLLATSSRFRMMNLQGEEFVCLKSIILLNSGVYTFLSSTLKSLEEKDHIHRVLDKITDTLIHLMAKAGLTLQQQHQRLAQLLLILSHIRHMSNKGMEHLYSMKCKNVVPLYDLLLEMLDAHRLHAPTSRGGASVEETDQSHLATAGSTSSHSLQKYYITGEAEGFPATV
In words: Estrogen receptor binding.

Assay [2] concerns DNA. Put plainly: Binding of piperidinedione to DNA. The text has this: (§1) The mode of action of these piperidinediones is still not proven. […] At the same time, direct binding of such anti-estrogens to DNA appears to be weak. Taken as a whole, these findings support the possibility of a weak interaction of the piperidinediones with both DNA and the estrogen receptor, involving a receptor mediated insertion of the ligand into DNA.

Assay [3] concerns Nb2 lymphoma cells. In words: DNA synthesis measured by thymidine incorporation. The assay is classed as cell-based, rat.
Excerpt: as §1
A general note: Incorporation of labelled thymidine or its analogues reports DNA synthesis.

The subject of assay [4] is MCF-7 (E-3) human breast cancer cells. In words: Inhibition of estrogen stimulated growth of MCF-7 (E-3) cells, 9 day model. Conditions: for IC50: MCF-7 (E-3), estrogen stimulated growth, 9 day model; for inhibition of estrogen stimulated cell growth: MCF-7 (E-3) cells. Type of assay: cell-based.
In assay [5] the test system is androgenic activity. Conditions: published findings by Hilgar and Hummel; cited from earlier work.
In assay [6] the target is T1, estrogen receptor. The following applies: cited from earlier work.
Assay [7] relates to uterotropic (estrogenic) activity. Conditions: relative to estradiol, Peters et al.; cited from earlier work.
For assay [8] the test system is unchanged. In words: Uterotropic (estrogenic) activity in vivo.
Assay [9] deals with various animal and human tumor cells. Put plainly: Growth inhibition in various animal and human tumor cells. The assay is classed as cell-based. As to the method:
(§2) These synthetic derivatives were assessed for biological potency by measuring their growth inhibitory effects on various cell lines using concentrations of […] based on the reported IC50 of 3-phenylacetylamino-2,6 piperidinedione in Nb2 cells.
3-Phenylacetylamino-2,6-piperidinedione (A10) is a modified amino-acid derivative, which was originally isolated from freeze-dried human urine. […] The focus of the following study was to develop more- potent analogs. […] It was observed that placing a hydroxyl group at the para position of the phenyl group of A10 would enable a second hydrogen bond to form thereby substantially enhancing fit as reported by Hendry et al., J. Steroid Biochem. Molec. Biol. 48:495-505 (1994), the teachings of which are hereby incorporated by reference in their entirety.

Assay [10] has as its system MCF-7 human breast cancer cells. Put plainly: MCF-7 cell growth (cell number) with SGI compounds. The following applies: dose 10^−8 M; control 252,197 cells. Type of assay: cell-based.
Assay [11] concerns YAK lymphoma cells. Put plainly: Growth inhibition in YAK lymphoma cells. Conditions: rank among derivatives. The assay is classed as cell-based. Here is the method:
as §2

Assay [12] deals with rat Nb2 lymphoma cells. Put plainly: Inhibition of prolactin stimulated growth of Nb2 lymphoma cells. The assay is classed as cell-based.
Assay [13] deals with human leukemia (K652) cells. Put plainly: Growth inhibition in human leukemia K562 cells. Type of assay: cell-based.

For `O=C1CCC(NC(=O)Cc2ccccc2)C(=O)N1` (stereo not drawn) [3-phenylacetylamino-2,6-piperidinedione], the “binding for the estrogen receptor” value in [1] was “neither 3-phenylacetylamino-2,6-piperidinedione nor phydroxy-3-phenylacetylamino-2,6-piperidinedione exhibited appreciable binding”. Moreover, the “covalent adducts with DNA” value in assay [2] is “No covalent adducts”. The “binding to DNA” value in [2] (in comparison to classical intercalating drugs) was “weak and reversible”. The “DNA synthesis measured by thymidine incorporation” value in assay [3] is listed as “significantly inhibited”. In assay [4] (Homo sapiens, MCF7, 216 h), this compound displayed an IC50 of 3 mM. Moreover, the “inhibition of estrogen stimulated cell growth” value in assay [4] is listed as “inhibited”.

For the compound `C[C@]12CCC(=O)C[C@@H]1CC[C@@H]1[C@@H]2CC[C@]2(C)[C@@H](O)CC[C@@H]12` [5α-dihydrotestosterone], in assay [5], the androgenic activity entry is given as “highly active androgen”.

Consider `C[C@]12CCC(=O)C[C@@H]1CC[C@@H]1[C@@H]2CC[C@]2(C)[C@@H](O)CC[C@@H]12` [5β-dihydrotestosterone], for which, in assay [5], the androgenic activity result was “essentially inactive”.

As for `C[C@@H]1Cc2cc(O)ccc2[C@@H]2[C@@H]1[C@@H]1CC[C@H](O)[C@@]1(C)C[C@@H]2O[N+](=O)[O-]` [7α-methylestradiol-11β-nitrate ester, 3,11β, 17β-trihydroxy-7α-methylestra-1,3, 5 (10)-triene 11-nitrate ester], the “binding to the estrogen receptor relative to estradiol” value in assay [6] is recorded as “less than 6 % of the binding of estradiol”. For the same compound, the uterotropic activity entry in assay [7] is given as “considerably greater than that of estradiol”.

For the compound `C[C@]12CC[C@H]3c4ccc(O)cc4CC[C@H]3[C@@H]1CC[C@@H]2O` [9β-estradiol], in assay [8], the “estrogenic (uterotropic) activity in vivo” value was “inactive; also recorded: little uterotropic activity”.

As for `CC(=O)O[C@H]1C[C@]2(C)[C@@H](O)CC[C@H]2[C@@H]2CCc3cc(O)ccc3[C@H]21` [11β-acetoxyestradiol], the “estrogenic (uterotropic) activity in vivo” value in assay [8] is “more active than estradiol”.

For `O=C1CCC(NC(=O)Cc2ccc(F)cc2)C(=O)N1` (stereo not drawn) [p-fluoro derivative], the “potency in tumor cell growth inhibition relative to A10” value in assay [9] was “lack of increased potency”.

For the compound `CC/C(=C(\c1ccccc1)c1ccc(OCCN(C)C)cc1)c1ccccc1` [tamoxifen citrate], in [10], the “number of MCF-7 cells” value is 187,759 cells.

Take “p-hydroxy-3-phenylacetylamino-2,6-piperidinedione”: the growth inhibitory effect entry is “most active derivative” in assay [11] and “most active analog” in [13] (rank among analogs). In addition, the “binding for the estrogen receptor” value in [1] is “neither 3-phenylacetylamino-2,6-piperidinedione nor phydroxy-3-phenylacetylamino-2,6-piperidinedione exhibited appreciable binding”. In addition, the “potency in tumor cell growth inhibition relative to A10” value is recorded as “most potent compound” in assay [9] and “as much as an order of magnitude more active than A10” in assay [9] (listed as p-OH-A10). Besides, the “growth inhibition over concentration range” value in assay [12] (Nb2 lymphoma cells, 10^−4 M to 10^−3 M) is reported as “more active in Nb2 lymphoma cells than 3-phenylacetylamino-2,6 piperidinedione”. The “inhibition of prolactin stimulated growth” value in [12] (rat Nb2 lymphoma cells) was “greatest activity”. In assay [4], the “inhibition of estrogen stimulated cell growth” value is recorded as “inhibited”. Besides, in [4], the IC50 was 0.007 mM. In addition, the “dose response comparison of growth inhibition” value in assay [13] (10^−5 to 10^−2 M) is “more active than the unsubstituted compound”.
